A short description of series [1]: solubility of silibinin in acetone. Particulars: dissolved at 40-50° C. in Example 1. The series is classed as physicochemical. The protocol: Silibinin is soluble in acetone. We evaluated the possibility that silibinin could be first dissolved in acetone and then put into solution with an oil carrier. Since acetone evaporates to completion out of any open system, it could be removed leaving the silibinin in solution. One should keep in mind that acetone is incredibly flammable, and methods for removing acetone should be chosen carefully.
Briefly, a total desired amount of silibinin was dissolved into acetone at moderate temperature (40-50° C.). Capric/capryllic triglyceride was then added with mixing until completely mixed. […] The solution was cooled with stirring. Rosemary EO 1 was added once the temperature was below 50° C., and the product was poured into dispensing containers for use by test subjects.

The nature of series [2]: solubility of silibinin in water. The format is physicochemical. An excerpt:
In certain embodiments, the disclosure provides compositions to deliver the active ingredient to the root bulb of the hair follicle. Silibinin is not soluble in water. Creating a cream formulation could possibly lead to clogging of pores at the site of the hair follicle, which could negatively affect restoration of the follicle. In certain aspects, the present disclosure relates to delivery of silibinin using oil-based formulations. Oil is absorbed into the stratum corneum and deeper layers of the skin where the root bulb cells are located.

As to `COc1cc(C2Oc3cc([C@H]4Oc5cc(O)cc(O)c5C(=O)[C@@H]4O)ccc3OC2CO)ccc1O` (some centres unmarked) [Silibinin], in series [1], the solubility in acetone entry is recorded as “soluble”. Also, the solubility in water entry in series [2] is “not soluble”.

For the origin of these results see US20180028424A1, “COMPOSITIONS FOR IMPROVING THE HEALTH OF HAIR, SKIN, AND NAILS” (FYBRANDS CORP., priority 2015, published 2018).
